Residue numbers refer to the chain shown, from its start. pKd: −log10 of the molar value. Blank lines part the entries; values can stand above or below the molecule they belong to. Peptide text beside a SMILES is read from it. * marks the point of attachment. X1 = O=C(C=NOCCO[C@H]1O[C@H](CO)[C@@H](O)[C@H](O)[C@@H]1O)*
Legend:
[1] = biological target: T1, DC-SIGN (Homo sapiens, UniProt Q9NNX6); test: ESI-MS binding assay with DC-SIGN
T1 sequence (Q9NNX6 1-404): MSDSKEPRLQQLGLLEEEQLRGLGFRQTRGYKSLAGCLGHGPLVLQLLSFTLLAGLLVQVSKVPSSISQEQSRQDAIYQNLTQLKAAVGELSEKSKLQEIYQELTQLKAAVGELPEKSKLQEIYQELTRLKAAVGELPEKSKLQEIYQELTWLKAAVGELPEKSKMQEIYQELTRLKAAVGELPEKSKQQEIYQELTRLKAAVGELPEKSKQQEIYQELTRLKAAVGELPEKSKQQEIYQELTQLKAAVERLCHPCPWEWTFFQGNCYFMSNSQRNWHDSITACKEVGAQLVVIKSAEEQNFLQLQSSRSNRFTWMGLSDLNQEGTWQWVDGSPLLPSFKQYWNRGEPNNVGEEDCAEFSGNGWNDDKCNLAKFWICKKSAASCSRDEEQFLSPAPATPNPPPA

[2] = biological target: T2, ConA (Canavalia ensiformis, UniProt P02866); format: binding
[3] = biological target: T3, PSA (Pisum sativum, UniProt P02867); test: ITC with PSA; format: binding
T3 sequence (P02867 31-211 limits assumed): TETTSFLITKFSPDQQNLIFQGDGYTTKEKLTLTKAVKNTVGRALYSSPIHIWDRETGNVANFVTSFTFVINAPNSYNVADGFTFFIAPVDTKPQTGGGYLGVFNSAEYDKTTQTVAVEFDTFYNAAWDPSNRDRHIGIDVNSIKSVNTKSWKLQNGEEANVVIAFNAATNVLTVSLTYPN
T3 sequence (P02867 218-269 limits assumed): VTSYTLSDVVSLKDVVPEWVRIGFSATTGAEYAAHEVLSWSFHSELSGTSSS

[4] = biological target: T4, LcH (Lens culinaris, UniProt P02870); test: ITC with LcH; format: binding
T4 sequence (P02870 31-211 limits assumed): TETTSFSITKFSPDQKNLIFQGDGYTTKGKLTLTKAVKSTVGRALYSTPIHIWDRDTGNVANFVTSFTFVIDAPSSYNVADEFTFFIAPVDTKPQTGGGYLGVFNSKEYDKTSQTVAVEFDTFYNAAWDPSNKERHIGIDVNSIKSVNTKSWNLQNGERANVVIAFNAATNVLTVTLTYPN
T4 sequence (P02870 218-269 limits assumed): T3 sequence (P02867 218-269 limits assumed) with S7N, D8E, S11P, Y32F, L38H, S47G

[5] = biological target: T2, ConA; settings: read-out: KD with ConA; literature value; cited from earlier work
[6] = biological target: T1, DC-SIGN; settings: read-out: KD with DC-SIGN; literature value; cited from earlier work

enhanced affinity for DC-SIGN [1]: enhanced affinity
SMILES: NC(=O)[C@H](CC(=O)O)NC(=O)[C@H](Cc1ccc(O)cc1)NC(=O)[C@H](Cc1c[nH]c2ccccc12)NC(=O)C=NOCCO[C@H]1O[C@H](CO)[C@@H](O)[C@H](O)[C@@H]1O [L20]

SMILES: CC[C@H](C)[C@H](NC(=O)[C@H](CC(N)=O)NC(=O)[C@H](CC(=O)O)NC(=O)[C@H](Cc1ccccc1)NC(=O)[C@H](CC(C)C)NC(=O)[C@H](CC(=O)O)NC(=O)[C@H](Cc1ccc(O)cc1)NC(=O)[C@H](Cc1c[nH]c2ccccc12)NC(=O)C=NOCCO[C@H]1O[C@H](CO)[C@@H](O)[C@H](O)[C@@H]1O)C(=O)N[C@@H](CC(N)=O)C(=O)N[C@@H](CO)C(N)=O [L30, Man-WYDLFDNINS] (X1-WYDLFDNINS-NH2; N-terminus assumed)
fold enhancement in affinity (lower KD) over MeMan [2]: 33 fold

SMILES: CC(C)C[C@H](NC(=O)[C@H](CC(=O)O)NC(=O)[C@H](Cc1ccc(O)cc1)NC(=O)[C@H](Cc1c[nH]c2ccccc12)NC(=O)C=NOCCO[C@H]1O[C@H](CO)[C@@H](O)[C@H](O)[C@@H]1O)C(=O)N[C@@H](Cc1ccccc1)C(N)=O [L37, Man-WYDLF] (X1-WYDLF-NH2; N-terminus assumed)
fold enhancement of binding of monosaccharide moiety by peptide fragment [3]: 2 fold | fold enhancement of binding of monosaccharide moiety by peptide fragment ([2]; ITC): 35 fold | fold enhancement of binding of monosaccharide moiety by peptide fragment [4]: 2 fold

SMILES: OC[C@H]1O[C@H](OC[C@H]2O[C@H](O)[C@@H](O)[C@@H](O[C@H]3O[C@H](CO)[C@@H](O)[C@H](O)[C@@H]3O)[C@@H]2O)[C@@H](O)[C@@H](O)[C@@H]1O [Man3, α-Man-(1→3)-[α-Man-(1→6)]-α-Man]
pKd [5]: 5.59 | pKd [6]: 3.23

From article PMC5553193 (Journal of the American Chemical Society, 2015)
